Assay results published in PMC6044636 (ACS Omega, 2016).

Target: A2AR (Homo sapiens, UniProt P29274)
Type: binding

Chain of A2AR (P29274 whole entry): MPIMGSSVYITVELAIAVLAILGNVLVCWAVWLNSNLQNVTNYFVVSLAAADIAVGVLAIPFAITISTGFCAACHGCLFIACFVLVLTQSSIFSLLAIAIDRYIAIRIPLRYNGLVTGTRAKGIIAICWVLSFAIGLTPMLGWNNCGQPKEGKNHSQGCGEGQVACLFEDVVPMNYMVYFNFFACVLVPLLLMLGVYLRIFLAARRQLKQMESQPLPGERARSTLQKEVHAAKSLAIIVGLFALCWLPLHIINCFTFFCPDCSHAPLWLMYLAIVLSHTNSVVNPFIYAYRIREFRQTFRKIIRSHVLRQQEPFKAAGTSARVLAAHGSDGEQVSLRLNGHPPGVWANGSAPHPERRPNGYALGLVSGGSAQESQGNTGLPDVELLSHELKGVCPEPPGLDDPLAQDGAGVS

Cn1c(-n2nccn2)nc2c(N)nc(CCC3CCCCC3)nc21 [Compound 8, 2-(2-Cyclohexylethyl)-9-methyl-8-(2H-1,2,3-triazol-2-yl)-9H-purin-6-amine]
Ki: 1.2 nM
